From patent publication US8642649B2, “Orally dispersible tablet” (Takeda Pharmaceutical Company Limited, priority 2011, dated 2014)
In brackets after ≈: the same amount, converted by molar mass. One block for each molecule: values may come before it.

Key:
[1] = randomized open-label pharmacokinetic study of oral-mucosal tablets versus oral 8 mg tablet; assay type: in vivo, human; conditions: for AUC(0-t) / Cmax: human serum, mean, N=6, measurement substance = label
Description: A randomized, open-label study to assess the pharmacokinetic parameters of an oral-mucosal tablet containing Compound A and its bioavailability relative to an oral 8 mg tablet containing Compound A was performed.
The test was conducted in two parts: (1) a parallel-group design to evaluate the pharmacokinetic parameters of 3 doses of Compound A (0.25, 0.5 and 1 mg) in oral-mucosal tablets and (2) an open-label, randomized 2-period crossover design to assess the relative bioavailability (pharmacokinetic profile) of the oral-mucosal 0.5 mg tablet compared with the bioavailability of the oral 8 mg tablet.
For part (1), a total of 18 subjects were randomly assigned to 1 of the 3 dosing regimens (i.e., 0.25, 0.5 and 1 mg; 6 subjects per dose) and each subject received a single dose of Compound A at the assigned dose.
For part (2), a total of 24 subjects were randomly assigned to take either the oral-mucosal 0.5 mg tablet or the oral 8 mg tablet at a single dose during each of the two periods.
To evaluate the studies, the pharmacokinetic parameters of Compound A and M-II were measured, including maximum observed serum concentration (Cmax) and area under the serum concentration-time curve from time 0 to the last quantifiable concentration (AUC(0-tlqc)).

[2] = blood kinetics of unchanged form and active metabolite M-II after oral or sublingual administration to human (cross-over, open-label); assay type: in vivo; conditions: for Cmax: serum, mean
Description: Oral preparation and preparation for oral-mucosal absorption were measured for blood kinetics of unchanged form and active metabolite M-II after oral or sublingual administration to human. The plasma concentration before administration, and 5 min, 10 min, 15 min, 20 min, 30 min, 45 min, 60 min, 90 min, 120 min, 180 min, 240 min, 360 min, 480 min, 600 min, 720 min and 1440 min after administration was measured.
To be specific, symbol/term and definition thereof in this table are explained in the following. The study was conducted by cross-over method under open-label condition.
AUC(0-tlqc): Area under the serum concentration-time curve from time 0 to time of the last quantifiable concentration (tlqc), calculated using the linear trapezoidal rule.
AUC(0-inf): Area under the serum concentration-time curve from time 0 to infinity, calculated as AUC(0-inf)=AUC(0-tlqc)+lqc/λz, where tlqc is the time of last quantifiable concentration and lqc is the last quantifiable concentration. λz: Terminal elimination rate constant, calculated as the negative of the slope of the log-linear regression of the natural logarithm concentration-time curve during the terminal phase. Cmax: Maximum observed serum concentration. Tmax: Time to reach Cmax. Active metaboline M-II: (2S)-2-Hydroxy-N-{2-[(8S)-1,6,7,8-tetrahydro-2H-indeno[5,4-b]furan-8-yl]ethyl}propanamide

[3] = test system: patients suffering from bipolar disorder and in the remission phase; assay: maintenance of remission phase in patients with bipolar disorder, double-blind randomized placebo-controlled trial; assay type: in vivo, human; conditions: oral 8 mg once daily at bedtime
Description: Oral 8 mg formulation containing Compound A The test tablet was administered to a group of patients suffering from bipolar disorder and in the remission phase, once daily at bedtime for 6 months. A placebo was administered once daily at bedtime to a separate control group of patients in the remission phase of bipolar disorder for 6 months. This study was performed as a double-blind, randomized, placebo-controlled trial. The time from randomization to relapse over 6 months of treatment is determined by the Primary Investigator (PI) or defined by any of the following criteria: depression [Montgomery-Asberg Depression Rating Scale (MADRS) score ≧16]; mania/hypomania [Young Mania Rating Scale (YMRS) total score ≧14]; clinical global impressions bipolar version (CGI-BP); cumulative proportion of participants in each arm (placebo or Compound A) surviving without relapse [MADRS score ≧16 and YMRS total score ≧14], a medication initiation or change for manic/depressed/mixed symptoms, a hospitalization for manic/depressed/mixed symptoms and suicide risk or imminent risk of suicide.

[4] = test system: patients suffering from bipolar disorder; assay: acute depression in patients with bipolar disorder, double-blind randomized placebo-controlled trial (CGI-BP); assay type: in vivo, human; conditions: oral 8 mg once daily up to 8 weeks; value below 0 favors Compound A; 95% CI; N=9; P value=0.001
solubility of compound A = assay type: physicochemical; conditions: irrespective of pH
[5] = single oral-mucosal tablet dose of Compound A 0.25 mg
[6] = single oral-mucosal tablet dose of Compound A 0.5 mg
[7] = single oral-mucosal tablet dose of Compound A 1 mg

- AUC(0-t) [1, 5]: 4.64 ng·h/mL
- Cmax [1, 5]: 1.85 ng/mL
- AUC(0-t) [1, 6]: 10.5 ng·h/mL
- Cmax [1, 6]: 3.74 ng/mL
- AUC(0-t) [1, 7]: 20.2 ng·h/mL
- Cmax [1, 7]: 7.68 ng/mL
- fraction of exposure compared to the approved oral 8 mg tablet ([1]; oral-mucosal administration 0.5 mg): < 7%
Compound: C[C@H](O)C(=O)NCC[C@@H]1CCc2ccc3c(c21)CCO3 [M-II, (2S)-2-Hydroxy-N-{2-[(8S)-1,6,7,8-tetrahydro-2H-indeno[5,4-b]furan-8-yl]ethyl}propanamide]

Compound: CCC(=O)NCC[C@@H]1CCc2ccc3c(c21)CCO3 [compound A, (S)—N-[2-(1,6,7,8-tetrahydro-2H-indeno[5,4-b]furan-8-yl)ethyl]propionamide]
- AUC(0-inf) unchanged/metabolite ratio ([2]; oral administration): 0.03
- Cmax unchanged/metabolite ratio ([2]; oral administration): 0.07
- Cmax ([2]; oral, dose 8 mg): 4.76 ± 5.19 ng/mL
- Cmax ([2]; sublingual, dose 0.5 mg): 4.74 ng/mL
- AUC(0-inf) unchanged/metabolite ratio ([2]; sublingual administration): 0.30
- Cmax unchanged/metabolite ratio ([2]; sublingual administration): 1.13
- Cumulative Proportion of Patients in each arm surviving without relapse ([3]; Baseline): 1.00
- Cumulative Proportion of Patients in each arm surviving without relapse ([3]; Month 1): 0.929
- Cumulative Proportion of Patients in each arm surviving without relapse ([3]; Month 2): 0.849
- Cumulative Proportion of Patients in each arm surviving without relapse ([3]; Month 3): 0.716
- Cumulative Proportion of Patients in each arm surviving without relapse ([3]; Month 4): 0.661
- Cumulative Proportion of Patients in each arm surviving without relapse ([3]; Month 5): 0.632
- Cumulative Proportion of Patients in each arm surviving without relapse ([3]; Month 6): 0.566
- CGI-BP severity for depression, longitudinal analysis of change in outcome [4]: −0.1 (−0.16 to −0.05)
- AUC(0-t) [1, 5]: 2.6 ng·h/mL
- Cmax [1, 5]: 3.14 ng/mL
- AUC(0-t) [1, 6]: 6.23 ng·h/mL
- Cmax [1, 6]: 5.85 ng/mL
- AUC(0-t) [1, 7]: 7.87 ng·h/mL
- Cmax [1, 7]: 9.57 ng/mL
- solubility (solubility of compound A): ~200 µg/mL (≈ 771 µM)
